Like-named read-outs stand apart in the source and are kept apart here.

For data set [1] the following is noted: rcm bond, Zhan's catalyst, DCE.
Data set [2] addresses HCV NS3/4A protease A156T mutant (Hepatitis C virus genotype 1b, UniProt P26663, A1182T). Briefly: HCV NS3/4A protease time-resolved fluorescence (TRF) assay, Ki against A156T mutant. Format: biochemical. To be noted: read-out: IC50 [gt-1b A156T]. Summed up:
(§1)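 Enzyme 0.2 nM 1b / 0.4 nM A156T / 0.025 nM 3a; 30 min preinc. w/ cpd; 25 nM TRF peptide; 2.5 h RT; ex 340/em 615 time-delayed; 4-param IC50 → Ki = IC50/(1+[S]/KM).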

Data set [3] concerns the target HCV NS3/4A protease genotype 3a (Hepatitis C virus genotype 3a, UniProt Q81495). In words: HCV NS3/4A protease time-resolved fluorescence (TRF) assay, Ki against genotype 3a. Format: biochemical. Summed up:
as §1

Data set [4] deals with HCV NS3/4A protease genotype 1b (Hepatitis C virus genotype 1b, UniProt P26663). In words: HCV NS3/4A protease time-resolved fluorescence (TRF) assay, Ki against genotype 1b. Format: biochemical. The gist of the method: as §1
Another data set relates to HCV genotype 1b replicon. In words: HCV replicon assay, genotype 1b replicon EC50. Format: cell-based, Hepatitis C virus. To be noted: Hepatitis C virus, read-out: EC50 [gt-1b]. The gist of the method: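 Assay format: compound titration on stable replicon cells, no G418 during treatment, 24 to 48 hours. Lysates were assayed for replicon RNA (hybridization/protection or TaqMan) or luciferase; EC50 fitted to four parameters against DMSO.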
A general note: In antiviral work, replicon cells carry a viral genome segment that copies itself.

Setting [5] is: NS3/4A gt-1b A156T mutant, enzyme 0.4 nM, K+ salt.
The mark [6] stands for this setting: IC50 [gt-1b] (nM), NS3/4A genotype 1b, enzyme 0.2 nM, K+ salt.

`CC(C)(C)OC(=O)N[C@H]1CCCCCC=C[C@@H]2C[C@@]2(C(=O)NS(=O)(=O)C2(C)CC2)NC(=O)[C@@H]2C[C@]3(CCc4c(c(C(F)(F)F)nc5ccccc45)O3)CN2C1=O` returned a ring closure, yield of all isomers in data set [1] (from C=CCCCCC[C@H](NC(=O)OC(C)(C)C)C(=O)N1C[C@@]2(CCc3c(c(C(F)(F)F)nc4ccccc34)O2)C[C@H]1C(=O)N[C@]1(C(=O)NS(=O)(=O)C2(C)CC2)C[C@H]1C=C, 2.94 mM, 75.0 °C) of 73.4%.

In the case of `CCOC(=O)[C@@]12C[C@H]1C=CCCCCC[C@H](NC(=O)OC(C)(C)C)C(=O)N1C[C@@]3(CCc4c(c(C)nc5ccc(C)cc45)O3)C[C@H]1C(=O)N2`, the ring closure, yield of all isomers in data set [1] (from C=CCCCCC[C@H](NC(=O)OC(C)(C)C)C(=O)N1C[C@@]2(CCc3c(c(C)nc4ccc(C)cc34)O2)C[C@H]1C(=O)N[C@]1(C(=O)OCC)C[C@H]1C=C, 3.55 mM, 65.0 °C, 3.0 h) was determined as 68%. For the compound `Cc1nc2ccc(OC(F)(F)F)cc2c2c1O[C@]1(CC2)C[C@H]2C(=O)N[C@]3(C(=O)NS(=O)(=O)C4(C)CC4)C[C@H]3C=CCCCCC[C@H](NC(=O)OC(C)(C)C)C(=O)N2C1`, in data set [1] (from C=CCCCCC[C@H](NC(=O)OC(C)(C)C)C(=O)N1C[C@@]2(CCc3c(c(C)nc4ccc(OC(F)(F)F)cc34)O2)C[C@H]1C(=O)N[C@]1(C(=O)NS(=O)(=O)C2(C)CC2)C[C@H]1C=C, 2.32 mM, 70.0 °C, 6.0 h), the ring closure, yield of all isomers was found to be 71%.

Take `CCOC(=O)[C@@]12C[C@H]1C=CCCCCC[C@H](NC(=O)OC(C)(C)C)C(=O)N1C[C@@]3(CCc4c(c(C)nc5ccc(F)cc45)O3)C[C@H]1C(=O)N2`: the ring closure, yield of all isomers in data set [1] (from C=CCCCCC[C@H](NC(=O)OC(C)(C)C)C(=O)N1C[C@@]2(CCc3c(c(C)nc4ccc(F)cc34)O2)C[C@H]1C(=O)N[C@]1(C(=O)OCC)C[C@H]1C=C, 2.83 mM, 75.0 °C, 4.0 h) came out at 47%.

For the compound `CCOC(=O)[C@@]12C[C@H]1C=CCCCCC[C@H](NC(=O)OC(C)(C)C)C(=O)N1C[C@@]3(CCc4c(c(C5CCC5)nc5ccc(OC)cc45)O3)C[C@H]1C(=O)N2`, in data set [1] (from C=CCCCCC[C@H](NC(=O)OC(C)(C)C)C(=O)N1C[C@@]2(CCc3c(c(C4CCC4)nc4ccc(OC)cc34)O2)C[C@H]1C(=O)N[C@]1(C(=O)OCC)C[C@H]1C=C, 4.5 mM, 70.0 °C, 2.2 h), the ring closure, yield of all isomers was 72%. As for `CCOC(=O)[C@@]12C[C@H]1C=CCCCCC[C@H](NC(=O)OC(C)(C)C)C(=O)N1C[C@@]3(CCc4c(c(C)nc5c(C(F)(F)F)cccc45)O3)C[C@H]1C(=O)N2`, the ring closure, yield of all isomers in data set [1] (from C=CCCCCC[C@H](NC(=O)OC(C)(C)C)C(=O)N1C[C@@]2(CCc3c(c(C)nc4c(C(F)(F)F)cccc34)O2)C[C@H]1C(=O)N[C@]1(C(=O)OCC)C[C@H]1C=C, 3.36 mM, 65.0 °C, 3.0 h) worked out at 50%. For `CC(C)(C)OC(=O)N[C@H]1CCCCC/C=C\[C@@H]2C[C@@]2(C(=O)NS(=O)(=O)C2(C)CC2)NC(=O)[C@@H]2C[C@]3(CCc4c(c(CO)nc5ccccc45)O3)CN2C1=O`, the ring closure, yield of all isomers in data set [1] (from C=CCCCCC[C@H](NC(=O)OC(C)(C)C)C(=O)N1C[C@@]2(CCc3c(c(CO)nc4ccccc34)O2)C[C@H]1C(=O)N[C@]1(C(=O)NS(=O)(=O)C2(C)CC2)C[C@H]1C=C, 2.0 mM, 65.0 °C, 2.0 h) came to 45.1%. For `CCOC(=O)[C@@]12C[C@H]1C=CCCCCC[C@H](NC(=O)OC(C)(C)C)C(=O)N1C[C@@]3(CCc4c(c(C)nc5c(F)cccc45)O3)C[C@H]1C(=O)N2`, in data set [1] (from C=CCCCCC[C@H](NC(=O)OC(C)(C)C)C(=O)N1C[C@@]2(CCc3c(c(C)nc4c(F)cccc34)O2)C[C@H]1C(=O)N[C@]1(C(=O)OCC)C[C@H]1C=C, 4.53 mM, 65.0 °C, 1.0 h), the ring closure, yield of all isomers worked out at 48%. Take `COc1ccc2nc(CO)c3c(c2c1Cl)CC[C@]1(C[C@H]2C(=O)N[C@]4(C(=O)NS(=O)(=O)C5(C)CC5)C[C@H]4C=CCCCCC[C@H](NC(=O)OC(C)(C)C)C(=O)N2C1)O3`: the ring closure, yield of all isomers in data set [1] (from C=CCCCCC[C@H](NC(=O)OC(C)(C)C)C(=O)N1C[C@@]2(CCc3c(c(CO)nc4ccc(OC)c(Cl)c34)O2)C[C@H]1C(=O)N[C@]1(C(=O)NS(=O)(=O)C2(C)CC2)C[C@H]1C=C, 1.91 mM, 65.0 °C, 3.0 h) turned out to be 25.9%. `Cc1nc2ccc(Cl)cc2c2c1O[C@]1(CC2)C[C@H]2C(=O)N[C@]3(C(=O)NS(=O)(=O)C4(C)CC4)C[C@H]3C=CCCCCC[C@H](NC(=O)OC(C)(C)C)C(=O)N2C1` displayed a ring closure, yield of all isomers in data set [1] (from C=CCCCCC[C@H](NC(=O)OC(C)(C)C)C(=O)N1C[C@@]2(CCc3c(c(C)nc4ccc(Cl)cc34)O2)C[C@H]1C(=O)N[C@]1(C(=O)NS(=O)(=O)C2(C)CC2)C[C@H]1C=C, 2.4 mM, 75.0 °C, 0.5 h) of 71.6%. A word on the IC50: it is the point on the concentration scale where inhibition reaches its midpoint. For orientation: EC50 means the concentration needed to bring the measured effect to its halfway point. For `Cc1nc2cc(F)c(F)cc2c2c1O[C@]1(CC2)C[C@H]2C(=O)N[C@]3(C(=O)NS(=O)(=O)C4(C)CC4)C[C@H]3/C=C\CCCCC[C@H](NC(=O)OC(C)C)C(=O)N2C1` [Example 194, propan-2-yl [(2R,6S,12Z,13aS,14aR,16aS)-8′,9′-difluoro-5′-methyl-14a-{[(1-methylcyclopropyl)sulfonyl]carbamoyl}-5,16-dioxo-1,1′,2′,5,6,7,8,9,10,11,13a,14,14a,15,16,16a-hexadecahydrospiro[cyclopropa[e]pyrrolo[1,2-a][1,4]diazacyclopentadecine-2,3′-pyrano[2,3-c]quinolin]-6-yl]carbamate], the IC50 in data set [2] (setting [5]) is 0.0541 nM; in data set [3], 0.994 nM; in data set [4] (setting [6]) it was 0.007 nM. For the same compound, the EC50 in the data set on HCV genotype 1b replicon (genotype 1b replicon, K+ salt) was found to be 8.28 nM. As for `CC(C)COC(=O)N[C@H]1CCCCC/C=C\[C@@H]2C[C@@]2(C(=O)NS(=O)(=O)C2(C)CC2)NC(=O)[C@@H]2C[C@]3(CCc4c(c(C(F)(F)F)nc5ccc(OCCCN6CCOCC6)cc45)O3)CN2C1=O` [Example 511, 2-methylpropyl [(2R,6S,12Z,13aS,14aR,16aS)-14a-{[(1-methylcyclopropyl)sulfonyl]carbamoyl}-9′-[3-(morpholin-4-yl)propoxy]-5,16-dioxo-5′-(trifluoromethyl)-1,1′,2′,5,6,7,8,9,10,11,13a,14,14a,15,16,16a-hexadecahydrospiro[cyclopropa[e]pyrrolo[1,2-a][1,4]diazacyclopentadecine-2,3′-pyrano[2,3-c]quinolin]-6-yl]carbamate], the IC50 in data set [2] (NS3/4A protease TRF assay, A156T mutant enzyme 0.4 nM) turned out to be 0.235 nM; in data set [3], 0.258 nM; in data set [4] (IC50 [gt-1b], NS3/4A protease TRF assay, genotype 1b enzyme 0.2 nM) it was 0.008 nM. Also, in the data set on HCV genotype 1b replicon (HCV replicon, genotype 1b), the EC50 worked out at 0.782 nM. Regarding `CCc1nc2ccc(OCCCOC)cc2c2c1O[C@]1(CC2)C[C@H]2C(=O)N[C@]3(C(=O)NS(=O)(=O)C4(C)CC4)C[C@H]3/C=C\CCCCC[C@H](NC(=O)OCC(C)C)C(=O)N2C1` [Example 484, 2-methylpropyl [(2R,6S,12Z,13aS,14aR,16aS)-5′-ethyl-9′-(3-methoxypropoxy)-14a-{[(1-methylcyclopropyl)sulfonyl]carbamoyl}-5,16-dioxo-1,1′,2′,5,6,7,8,9,10,11,13a,14,14a,15,16,16a-hexadecahydrospiro[cyclopropa[e]pyrrolo[1,2-a][1,4]diazacyclopentadecine-2,3′-pyrano[2,3-c]quinolin]-6-yl]carbamate], the IC50 was 0.164 nM in data set [2] (NS3/4A protease TRF assay, A156T mutant enzyme 0.4 nM, K+ salt); 0.628 nM in data set [3]; 0.003 nM in data set [4] (IC50 [gt-1b], NS3/4A protease TRF assay, genotype 1b enzyme 0.2 nM, K+ salt). Further, the EC50 in the data set with HCV genotype 1b replicon (HCV replicon, genotype 1b, K+ salt) worked out at 0.357 nM. For `Cc1nc2cc(F)c(F)cc2c2c1O[C@]1(CC2)C[C@H]2C(=O)N[C@]3(C(=O)NS(=O)(=O)C4(C)CC4)C[C@H]3/C=C\CCCCC[C@H](NC(=O)OC3(C)CC3)C(=O)N2C1` [Example 195, 1-methylcyclopropyl [(2R,6S,12Z,13aS,14aR,16aS)-8′,9′-difluoro-5′-methyl-14a-{[(1-methylcyclopropyl)sulfonyl]carbamoyl}-5,16-dioxo-1,1′,2′,5,6,7,8,9,10,11,13a,14,14a,15,16,16a-hexadecahydrospiro[cyclopropa[e]pyrrolo[1,2-a][1,4]diazacyclopentadecine-2,3′-pyrano[2,3-c]quinolin]-6-yl]carbamate], the IC50 in data set [2] (setting [5]) came out at 0.134 nM; in data set [3], 1.73 nM; in data set [4] (setting [6]), 0.01 nM. Further, the concentration giving a half-maximal response (EC50) in the data set with HCV genotype 1b replicon (genotype 1b replicon, K+ salt) came to 8.67 nM.

In turn, `Cc1nc2ccccc2c2c1O[C@]1(CC2)C[C@H]2C(=O)N[C@]3(C(=O)NS(=O)(=O)C4(C)CC4)C[C@H]3C=CCCCCC[C@H](NC(=O)OC(C)(C)C)C(=O)N2C1` returned a ring closure, yield of all isomers in data set [1] (from C=CCCCCC[C@H](NC(=O)OC(C)(C)C)C(=O)N1C[C@@]2(CCc3c(c(C)nc4ccccc34)O2)C[C@H]1C(=O)N[C@]1(C(=O)NS(=O)(=O)C2(C)CC2)C[C@H]1C=C, 2.5 mM, 65.0 °C, 7.0 h) of 62.9%.

The values are drawn from patent US8987195B2 (priority 2012, dated 2015).
